Laboratory results: patent US4205163A, “Tylosin derivatives” (Sanraku-Ocean Co., Ltd., priority 1977, dated 1980)
Values after ≈ are worked out from the molar mass of the structure shown.

Key:
Experiment in all cases: antimicrobial activity, broth dilution method
Format in all cases: cell-based
[1] = system: Staphylococcus aureus MS-9937; details: Staphylococcus aureus MS-9937, drug-resistant clinical isolate; for MIC: MS9937, read-out: minimum inhibitory concentration (MIC)
Protocol: (§1) Antimicrobial activity of the new antibiotics according to the present invention was measured on various pathogenic microorganisms by the broth dilution mehtod. Tab. […] The new antibiotics show a similar antimicrobial spectrum to that of tylosin as shown in Tab. 4. All the compounds have an excellent antimicrobial activity mainly on gram-positive bacteria. […] Test microorganisms with an asterisk mark (*) in Tab. 4 are all drug-resistant strains that were clinically isolated. More in detail, Staphylococcus aureus MS-8710 is resistant to tylosin, penicillin, tetracycline, erythromycin and leucomycin. Staphylococcus aureus MS-9931 is resistant to tylosin, penicillin, erythromycin, tetracycline, leucomycin, spiramycin and josamycin. And also Streptococcus piogenes is resistant to tylosin, erythromycin, oleandomycin and leucomycin.

[2] = system: Streptococcus pyogenes MH-771; details: for MIC: Streptococcus pyogenes, MH771, Streptococcus pyogenes MH-771, drug-resistant clinical isolate, read-out: minimum inhibitory concentration (MIC)
Protocol: as §1

[3] = system: Staphylococcus aureus SMITH; details: Staphylococcus aureus SMITH, broth dilution; for MIC: Staphylococcus aureus, read-out: minimum inhibitory concentration (MIC)
Protocol: as §1

[4] = system: Staphylococcus aureus MS-8710; details: for MIC: Staphylococcus aureus, MS8710, Staphylococcus aureus MS-8710, drug-resistant clinical isolate, read-out: minimum inhibitory concentration (MIC)
Protocol: as §1

[5] = system: Staphylococcus aureus FDA-209P; details: Staphylococcus aureus FDA-209P, broth dilution; for MIC: Staphylococcus aureus, FDA209P, read-out: minimum inhibitory concentration (MIC)
Protocol: as §1

[6] = system: Staphylococcus aureus MS-9931; details: Staphylococcus aureus MS-9931, drug-resistant clinical isolate; for MIC: MS9931, read-out: minimum inhibitory concentration (MIC)
Protocol: as §1

Sarcina lutea ATCC 9341 = details: for MIC: Micrococcus luteus, ATCC9341, Sarcina lutea ATCC 9341, read-out: minimum inhibitory concentration (MIC)
Protocol: as §1

[7] = system: Bacillus cereus ATCC 9634; details: broth dilution; for MIC: Bacillus cereus, ATCC9634, Bacillus cereus ATCC 9634, read-out: minimum inhibitory concentration (MIC)
Protocol: as §1

| Structure (SMILES) | MIC [1] | MIC [2] | MIC [3] | MIC [4] | MIC [5] | MIC [6] | MIC (Sarcina lutea ATCC 9341) | MIC [7] | minimum inhibitory concentration (MIC) [1] | minimum inhibitory concentration (MIC) ([2]; Streptococcus pyogenes MH-771, drug-resistant clinical isolate) | minimum inhibitory concentration (MIC) [3] | minimum inhibitory concentration (MIC) ([4]; Staphylococcus aureus MS-8710, drug-resistant clinical isolate) | minimum inhibitory concentration (MIC) [5] | minimum inhibitory concentration (MIC) [6] | minimum inhibitory concentration (MIC) (Sarcina lutea ATCC 9341; Sarcina lutea ATCC 9341) | minimum inhibitory concentration (MIC) ([7]; Bacillus cereus ATCC 9634) |
| --- | --- | --- | --- | --- | --- | --- | --- | --- | --- | --- | --- | --- | --- | --- | --- | --- |
| CCC1OC(=O)CC(O)C(C)C(OC2OC(C)C(OC3CC(C)(O)C(O)C(C)O3)C(N(C)C)C2OC(C)=O)C(CC=O)CC(C)C(=O)C=CC(C)=CC1COC1OC(C)C(OC(=O)COc2ccccc2)C(OC)C1OC (stereo not shown) [Compound 5, 2'-acetyl-4'"-phenoxyacetyltylosin] | 100 µg/mL (≈ 91.6 µM) | 100 µg/mL (≈ 91.6 µM) | 0.78 µg/mL (≈ 0.714 µM) | 100 µg/mL (≈ 91.6 µM) | 0.78 µg/mL (≈ 0.714 µM) | 100 µg/mL (≈ 91.6 µM) | 0.39 µg/mL (≈ 0.357 µM) | 0.78 µg/mL (≈ 0.714 µM) | – | – | – | – | – | – | – | – |
| CCCCCC(=O)OC1C(C)OC(OC2C(C)OC(OC3C(CC=O)CC(C)C(=O)C=CC(C)=CC(COC4OC(C)C(O)C(OC)C4OC)C(CC)OC(=O)CC(O)C3C)C(O)C2N(C)C)CC1(C)O (stereo not shown) [Compound 7, 4"-n-caproyl(or n-hexanoyl)tylosin] | 12.5 µg/mL (≈ 12.3 µM) | 6.25 µg/mL (≈ 6.16 µM) | 0.78 µg/mL (≈ 0.769 µM) | 12.5 µg/mL (≈ 12.3 µM) | 0.78 µg/mL (≈ 0.769 µM) | 25 µg/mL (≈ 24.6 µM) | 0.39 µg/mL (≈ 0.385 µM) | 0.78 µg/mL (≈ 0.769 µM) | – | – | – | – | – | – | – | – |
| CCC1OC(=O)CC(O)C(C)C(OC2OC(C)C(OC3CC(C)(O)C(O)C(C)O3)C(N(C)C)C2OC(C)=O)C(CC=O)CC(C)C(=O)C=CC(C)=CC1COC1OC(C)C(OC(=O)C(Cl)(Cl)Cl)C(OC)C1OC (stereo not shown) [Compound 2, 2'-acetyl-4'"-trichloroacetyltylosin] | 100 µg/mL (≈ 90.6 µM) | 200 µg/mL (≈ 181 µM) | 1.56 µg/mL (≈ 1.41 µM) | 200 µg/mL (≈ 181 µM) | 1.56 µg/mL (≈ 1.41 µM) | 100 µg/mL (≈ 90.6 µM) | 0.39 µg/mL (≈ 0.353 µM) | 1.56 µg/mL (≈ 1.41 µM) | – | – | – | – | – | – | – | – |
| CCC1OC(=O)CC(O)C(C)C(OC2OC(C)C(OC3CC(C)(O)C(OC(=O)CCSc4ccccc4)C(C)O3)C(N(C)C)C2O)C(CC=O)CC(C)C(=O)C=CC(C)=CC1COC1OC(C)C(O)C(OC)C1OC (stereo not drawn) [Compound 39, 4"-β-phenylthiopropionyltylosin] | 12.5 µg/mL (≈ 11.6 µM) | 6.25 µg/mL (≈ 5.79 µM) | 0.39 µg/mL (≈ 0.361 µM) | 12.5 µg/mL (≈ 11.6 µM) | 0.78 µg/mL (≈ 0.722 µM) | 12.5 µg/mL (≈ 11.6 µM) | 0.19 µg/mL (≈ 0.176 µM) | 0.39 µg/mL (≈ 0.361 µM) | – | – | – | – | – | – | – | – |
| CCCCCC(=O)OC1C(C)OC(OC2C(C)OC(OC3C(CC=O)CC(C)C(=O)C=CC(C)=CC(COC4OC(C)C(O)C(OC)C4OC)C(CC)OC(=O)CC(OC(C)=O)C3C)C(O)C2N(C)C)CC1(C)O (stereo not shown) [Compound 8, 3-acetyl-4"-n-caproyl(or n-hexanoyl)tylosin] | 25 µg/mL (≈ 23.7 µM) | 6.25 µg/mL (≈ 5.92 µM) | 0.78 µg/mL (≈ 0.738 µM) | 25 µg/mL (≈ 23.7 µM) | 0.39 µg/mL (≈ 0.369 µM) | 25 µg/mL (≈ 23.7 µM) | 0.39 µg/mL (≈ 0.369 µM) | 0.78 µg/mL (≈ 0.738 µM) | – | – | – | – | – | – | – | – |
| CCCC(C)C(=O)OC1C(C)OC(OC2C(C)OC(OC3C(CC=O)CC(C)C(=O)C=CC(C)=CC(COC4OC(C)C(O)C(OC)C4OC)C(CC)OC(=O)CC(O)C3C)C(O)C2N(C)C)CC1(C)O (stereo not drawn) [Compound 12, 4"-α-methyl-n-valeryltylosin] | 25 µg/mL (≈ 24.6 µM) | 6.25 µg/mL (≈ 6.16 µM) | 1.56 µg/mL (≈ 1.54 µM) | 25 µg/mL (≈ 24.6 µM) | 1.56 µg/mL (≈ 1.54 µM) | 100 µg/mL (≈ 98.6 µM) | 0.39 µg/mL (≈ 0.385 µM) | 0.78 µg/mL (≈ 0.769 µM) | – | – | – | – | – | – | – | – |
| CCC1OC(=O)CC(OC(C)=O)C(C)C(OC2OC(C)C(OC3CC(C)(O)C(OC(=O)C(OC(C)=O)c4ccccc4)C(C)O3)C(N(C)C)C2O)C(CC=O)CC(C)C(=O)C=CC(C)=CC1COC1OC(C)C(O)C(OC)C1OC [Compound 20, 3-acetyl-4"-L-(α-acetoxyphenylacetyl)tylosin] | – | – | – | – | – | – | – | – | 100 µg/mL (≈ 88.2 µM) | 12.5 µg/mL (≈ 11 µM) | 1.56 µg/mL (≈ 1.38 µM) | 50 µg/mL (≈ 44.1 µM) | 0.78 µg/mL (≈ 0.688 µM) | 100 µg/mL (≈ 88.2 µM) | 0.39 µg/mL (≈ 0.344 µM) | 1.56 µg/mL (≈ 1.38 µM) |
| CCC1OC(=O)CC(OC(C)=O)C(C)C(OC2OC(C)C(OC3CC(C)(O)C(OC(=O)CCc4ccccc4)C(C)O3)C(N(C)C)C2O)C(CC=O)CC(C)C(=O)C=CC(C)=CC1COC1OC(C)C(O)C(OC)C1OC (stereo not drawn) [Compound 25, 3-acetyl-4"-β-phenylpropionyltylosin] | 50 µg/mL (≈ 45.9 µM) | 25 µg/mL (≈ 22.9 µM) | 0.78 µg/mL (≈ 0.715 µM) | 50 µg/mL (≈ 45.9 µM) | 1.56 µg/mL (≈ 1.43 µM) | 50 µg/mL (≈ 45.9 µM) | 0.39 µg/mL (≈ 0.358 µM) | 0.78 µg/mL (≈ 0.715 µM) | – | – | – | – | – | – | – | – |
| CCC1OC(=O)CC(OC(C)=O)C(C)C(OC2OC(C)C(OC3CC(C)(O)C(OC(=O)C(OC(C)=O)c4ccccc4)C(C)O3)C(N(C)C)C2O)C(CC=O)CC(C)C(=O)C=CC(C)=CC1COC1OC(C)C(O)C(OC)C1OC [Compound 19, 3-acetyl-4"-D-(α-acetoxyphenylacetyl)tylosin] | 100 µg/mL (≈ 88.2 µM) | 25 µg/mL (≈ 22 µM) | 0.78 µg/mL (≈ 0.688 µM) | 100 µg/mL (≈ 88.2 µM) | 1.56 µg/mL (≈ 1.38 µM) | 100 µg/mL (≈ 88.2 µM) | 0.78 µg/mL (≈ 0.688 µM) | 0.78 µg/mL (≈ 0.688 µM) | – | – | – | – | – | – | – | – |
| CCC(=O)OC1C(OC2C(CC=O)CC(C)C(=O)C=CC(C)=CC(COC3OC(C)C(O)C(OC)C3OC)C(CC)OC(=O)CC(O)C2C)OC(C)C(OC2CC(C)(O)C(O)C(C)O2)C1N(C)C (stereo not shown) [2'-propionyltylosin, reference compound] | 200 µg/mL (≈ 206 µM) | > 200 µg/mL | 1.56 µg/mL (≈ 1.6 µM) | > 200 µg/mL | 1.56 µg/mL (≈ 1.6 µM) | 200 µg/mL (≈ 206 µM) | 0.39 µg/mL (≈ 0.401 µM) | 1.56 µg/mL (≈ 1.6 µM) | – | – | – | – | – | – | – | – |
| CCC1OC(=O)CC(OC(C)=O)C(C)C(OC2OC(C)C(OC3CC(C)(O)C(OC(=O)CSc4ccncc4)C(C)O3)C(N(C)C)C2O)C(CC=O)CC(C)C(=O)C=CC(C)=CC1COC1OC(C)C(O)C(OC)C1OC (stereo not shown) [Compound 42, 3-acetyl-4"-(4-pyridyl)thioacetyltylosin] | 6.25 µg/mL (≈ 5.63 µM) | 3.13 µg/mL (≈ 2.82 µM) | 0.39 µg/mL (≈ 0.352 µM) | 6.25 µg/mL (≈ 5.63 µM) | 0.39 µg/mL (≈ 0.352 µM) | 12.5 µg/mL (≈ 11.3 µM) | 0.19 µg/mL (≈ 0.171 µM) | 0.39 µg/mL (≈ 0.352 µM) | – | – | – | – | – | – | – | – |
| CCC1OC(=O)CC(OC(C)=O)C(C)C(OC2OC(C)C(OC3CC(C)(O)C(OC(=O)Cc4cccc5ccccc45)C(C)O3)C(N(C)C)C2O)C(CC=O)CC(C)C(=O)C=CC(C)=CC1COC1OC(C)C(O)C(OC)C1OC (stereo not drawn) [Compound 23, 3-acetyl-4"-α-naphthylacetyltylosin] | 50 µg/mL (≈ 44.4 µM) | 25 µg/mL (≈ 22.2 µM) | 0.78 µg/mL (≈ 0.693 µM) | 25 µg/mL (≈ 22.2 µM) | 0.78 µg/mL (≈ 0.693 µM) | 25 µg/mL (≈ 22.2 µM) | 0.39 µg/mL (≈ 0.346 µM) | 0.78 µg/mL (≈ 0.693 µM) | – | – | – | – | – | – | – | – |
| CCC1OC(=O)CC(O)C(C)C(OC2OC(C)C(OC3CC(C)(O)C(O)C(C)O3)C(N(C)C)C2OC(C)=O)C(CC=O)CC(C)C(=O)C=CC(C)=CC1COC1OC(C)C(OC(=O)CCl)C(OC)C1OC (stereo not shown) [Compound 1, 2'-acetyl-4'"-monochloracetyltylosin] | 200 µg/mL (≈ 193 µM) | 200 µg/mL (≈ 193 µM) | 1.56 µg/mL (≈ 1.51 µM) | > 200 µg/mL | 1.56 µg/mL (≈ 1.51 µM) | 200 µg/mL (≈ 193 µM) | 0.78 µg/mL (≈ 0.754 µM) | 1.56 µg/mL (≈ 1.51 µM) | – | – | – | – | – | – | – | – |
| CCC1OC(=O)CC(OC(C)=O)C(C)C(OC2OC(C)C(OC3CC(C)(O)C(OC(=O)C(O)c4ccccc4)C(C)O3)C(N(C)C)C2O)C(CC=O)CC(C)C(=O)C=CC(C)=CC1COC1OC(C)C(O)C(OC)C1OC [Compound 18, 3-acetyl-4"-L-(α-hydroxyphenylacetyl)tylosin] | – | – | 0.78 µg/mL (≈ 0.714 µM) | 25 µg/mL (≈ 22.9 µM) | 0.78 µg/mL (≈ 0.714 µM) | – | 0.39 µg/mL (≈ 0.357 µM) | 0.78 µg/mL (≈ 0.714 µM) | – | – | – | – | – | – | – | – |
